Experimental data: the supplement of paper PMC10307832

Compound: Cc1ccc(Nc2nccc(N(C)c3ccc4c(C)n(C)nc4c3)n2)cc1S(N)(=O)=O [Pazopanib] + NC(=O)Nc1cc(-c2cccc(F)c2)sc1C(=O)N[C@H]1CCCNC1 [AZD7762] (partner 0.2 µM)
Test: relative viability (nuclei count vs DMSO), 5 days (fraction); higher = more cells survive
Details: first compound 0.01 µM
Method in brief: (§1)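 Dosing by pin tool came one day after lung cancer cell lines were seeded in 1536-well plates, using either one drug or a fixed anchor-drug dose plus five library-drug doses (not always all listed) in √10 steps. After 5 days, nuclei were counted on 4× images. Relative viability is treated-well nuclei count divided by vehicle-well nuclei count, and values are medians of duplicate plates.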

Row | Cell Line | relative viability
1 | HARA | 0.428
2 | NCI-H441 | 1.31
3 | A-427 | 0.864
4 | NCI-H460 | 0.766
5 | NCI-H727 | 0.618
6 | NCI-H1734 | 0.519
7 | NCI-H2405 | 0.718
8 | 201T | 0.534

Same assay, conditions: first compound 0.03162 µM

Row | Cell Line | relative viability
9 | NCI-H3122 | 0.952
10 | HOP-62 | 0.589
11 | HCC-44 | 0.979
12 | LU99A | 0.347
13 | BEN | 0.75
14 | HARA | 0.303
15 | HCC-78 | 0.654
16 | NCI-H441 | 1.14
17 | LCLC-97TM1 | 0.241
18 | A-427 | 0.786
19 | NCI-H460 | 0.619
20 | NCI-H1734 | 0.561
21 | NCI-H2405 | 0.772
22 | NCI-H1793 | 0.674
23 | 201T | 0.511

Same assay, conditions: first compound 0.1 µM

Row | Cell Line | relative viability
24 | NCI-H3122 | 1.1
25 | HOP-62 | 0.527
26 | HCC-44 | 0.979
27 | LU99A | 0.466
28 | BEN | 0.607
29 | HARA | 0.255
30 | HCC-78 | 0.615
31 | NCI-H441 | 1.08
32 | LCLC-97TM1 | 0.248
33 | A-427 | 0.825
34 | NCI-H460 | 0.551
35 | NCI-H727 | 0.609
36 | NCI-H1734 | 0.555
37 | NCI-H2405 | 0.702
38 | NCI-H1793 | 0.481
39 | 201T | 0.667

Same assay, conditions: first compound 0.3162 µM

Row | Cell Line | relative viability
40 | NCI-H3122 | 0.95
41 | HOP-62 | 0.528
42 | HCC-44 | 1.01
43 | LU99A | 0.343
44 | BEN | 0.775
45 | HARA | 0.35
46 | HCC-78 | 0.658
47 | NCI-H441 | 1.09
48 | LCLC-97TM1 | 0.303
49 | A-427 | 0.784
50 | NCI-H460 | 0.637
51 | NCI-H727 | 0.663
52 | NCI-H1734 | 0.689
53 | NCI-H2405 | 0.751
54 | NCI-H1793 | 0.593
55 | 201T | 0.685

Same assay, conditions: first compound 1 µM

Row | Cell Line | relative viability
56 | NCI-H3122 | 0.987
57 | HOP-62 | 0.478
58 | HCC-44 | 0.982
59 | LU99A | 0.384
60 | BEN | 0.786
61 | HARA | 0.349
62 | HCC-78 | 0.604
63 | NCI-H441 | 1.12
64 | LCLC-97TM1 | 0.188
65 | A-427 | 0.716
66 | NCI-H460 | 0.597
67 | NCI-H727 | 0.562
68 | NCI-H1734 | 0.623
69 | NCI-H2405 | 0.74
70 | NCI-H1793 | 0.44
71 | 201T | 0.615

Compound: Cc1ccc(Nc2nccc(N(C)c3ccc4c(C)n(C)nc4c3)n2)cc1S(N)(=O)=O [Pazopanib] + Nc1ncn([C@H]2C[C@H](O)[C@@H](CO)O2)c(=O)n1 [Decitabine] (partner 2 µM)
Test: as above
Details: first compound 0.01 µM
Method in brief: as §1

Row | Cell Line | relative viability
72 | NCI-H3122 | 0.516
73 | HOP-62 | 0.208
74 | HCC-44 | 0.913
75 | BEN | 0.579
76 | HARA | 0.484
77 | NCI-H441 | 0.239
78 | A-427 | 0.554
79 | NCI-H460 | 0.561
80 | NCI-H727 | 0.724
81 | NCI-H1734 | 0.498
82 | NCI-H2405 | 0.724
83 | 201T | 0.831

Same assay, conditions: first compound 0.03162 µM

Row | Cell Line | relative viability
84 | NCI-H3122 | 0.407
85 | HOP-62 | 0.238
86 | HCC-44 | 0.949
87 | LU99A | 0.916
88 | BEN | 0.791
89 | HARA | 0.615
90 | HCC-78 | 0.729
91 | NCI-H441 | 0.272
92 | LCLC-97TM1 | 0.229
93 | A-427 | 0.538
94 | NCI-H460 | 0.513
95 | NCI-H1734 | 0.492
96 | NCI-H2405 | 0.774
97 | NCI-H1793 | 0.516
98 | 201T | 0.886

Same assay, conditions: first compound 0.1 µM

Row | Cell Line | relative viability
99 | NCI-H3122 | 0.474
100 | HOP-62 | 0.228
101 | HCC-44 | 0.941
102 | LU99A | 0.935
103 | BEN | 0.726
104 | HARA | 0.6
105 | HCC-78 | 0.648
106 | NCI-H441 | 0.229
107 | LCLC-97TM1 | 0.247
108 | A-427 | 0.554
109 | NCI-H460 | 0.551
110 | NCI-H727 | 0.879
111 | NCI-H1734 | 0.461
112 | NCI-H2405 | 0.8
113 | NCI-H1793 | 0.488
114 | 201T | 0.866

Same assay, conditions: first compound 0.3162 µM

Row | Cell Line | relative viability
115 | NCI-H3122 | 0.449
116 | HOP-62 | 0.288
117 | HCC-44 | 0.984
118 | LU99A | 0.953
119 | BEN | 0.831
120 | HARA | 0.543
121 | HCC-78 | 0.691
122 | NCI-H441 | 0.257
123 | LCLC-97TM1 | 0.223
124 | A-427 | 0.533
125 | NCI-H460 | 0.488
126 | NCI-H727 | 0.885
127 | NCI-H1734 | 0.532
128 | NCI-H2405 | 0.858
129 | NCI-H1793 | 0.506
130 | 201T | 0.879

Same assay, conditions: first compound 1 µM

Row | Cell Line | relative viability
131 | NCI-H3122 | 0.459
132 | HOP-62 | 0.196
133 | HCC-44 | 1
134 | LU99A | 0.961
135 | BEN | 0.782
136 | HARA | 0.602
137 | HCC-78 | 0.818
138 | NCI-H441 | 0.252
139 | LCLC-97TM1 | 0.237
140 | A-427 | 0.613
141 | NCI-H460 | 0.552
142 | NCI-H727 | 1.02
143 | NCI-H1734 | 0.512
144 | NCI-H2405 | 0.814
145 | NCI-H1793 | 0.627
146 | 201T | 0.838
